The values that follow come from patent US5665718A, “Imidazodiazepines” (Hoffmann-La Roche Inc., priority 1994, dated 1997).

Molecules are shown by their SMILES. Where two headings read alike, the source gives them in different places.

In data set [1] the target is central benzodiazepine receptors. As to the kind of experiment: Affinity to central benzodiazepine receptors: inhibition of binding of tritiated flumazenil in rat cortex. As to conditions: in vitro. How it is done:
The affinity of compounds of general formula I to the central benzodiazepine receptors was established in vitro according to the methods described in Nature 294, 763-765 (1981) and J. Neurochemistry 37, 714-722 (1981). According to these methods, the inhibition of the binding of tritiated flumazenil to the specific benzodiazepine receptors in the cortex of rats by the respective test substances is determined. The IC50 ("50% inhibiting concentration") denotes that concentration of the respective test substance which brings about a 50 per cent inhibition of the specific binding of tritiated flumazenil to the specific benzodiazepine receptors in the cortex of rats.

Data set [2] can be described thus: Rotating rod test (sedative/muscle relaxant properties), i.v. It counts as in vivo. As to conditions: Mus musculus, iv, mice. The protocol: The sedative/muscle relaxant properties of the compounds of formula I in accordance with the invention can be determined, for example, in the rotating rod test. Mice weighing 19-21 g are used for this test. They have free access to feed and drinking water up to 1 hour before the beginning of the test. They are brought into the test laboratory at least 30 minutes before the test. In the rotating rod test the animals are placed on a horizontally arranged, smooth metal rod having a diameter of 3 cm, which is rotated at 2 revolutions per minute. Initially, the animals are given the opportunity of familiarizing themselves with the test situation for 30 seconds. Subsequently, those animals which succeed in remaining on the rod for at least 1 minute are selected. These animals are then given the test preparations intravenously in different dosages. At various points in time it is then determined whether the animals are able to remain on the rod for a minimum period (minimum period: 10 seconds; from 5 minutes after administration: 1 minute.). That dosages at which 50% of the animals are capable of remaining on the rod (ED 50) is determined.

The nature of data set [3]: Fatalities after i.v. administration to mice. As to conditions: 32 and 100 mg/kg i.v. It counts as in vivo.
Data set [4] is described as follows: Fatalities after i.v. administration to rats. The format is in vivo. As to conditions: 32 and 100 mg/kg i.v.
The mark [5] stands for this setting: 15 s, 15 sec after administration, read-out: Rotating rod test, ED50, 15 sec after administration.
[6] abbreviates: 0.5 min, 30 sec after administration, read-out: Rotating rod test, ED50, 30 sec after administration.
Setting [7] is: 1 min, 60 sec after administration, read-out: Rotating rod test, ED50, 60 sec after administration.
[8] abbreviates: 2 min, 2 min after administration, read-out: Rotating rod test, ED50, 2 min after administration.
The mark [9] stands for this setting: 5 min, 5 min after administration, read-out: Rotating rod test, ED50, 5 min after administration.
Where [10] appears, read: 0.25 h, 15 min after administration, read-out: Rotating rod test, ED50, 15 min after administration.
The mark [11] stands for this setting: 0.5 h, 30 min after administration, read-out: Rotating rod test, ED50, 30 min after administration.
The mark [12] stands for this setting: 1 h, 60 min after administration, read-out: Rotating rod test, ED50, 60 min after administration.

What is called IC50 is the concentration at which inhibition is half-maximal. Read a low IC50 as greater potency. Regarding `CCCN(CCC)Cc1nc(-c2ncn3c2CN(C)C(=O)c2cc(F)ccc2-3)no1` [D, 3-(5-dipropylaminomethyl-1,2,4-oxadiazol-3-yl)-8-fluoro-5-methyl-5,6-dihydro-4H-imidazo[1,5-a][1,4]benzodiazepin-6-one], the IC50 in data set [1] is 3.3 nM. The ED50 in data set [2] (setting [5]) came to 0.2 mg/kg; in data set [2] (setting [6]), 0.2 mg/kg; in data set [2] (setting [7]), 0.3 mg/kg; in data set [2] (setting [8]), 0.3 mg/kg; in data set [2] (setting [9]) it was 0.8 mg/kg; in data set [2] (setting [10]), 2.6 mg/kg. The ED50 in data set [2] (setting [11]) and in data set [2] (setting [12]) was more than 10 mg/kg in each case. The fatalities entry in data set [3] and in data set [4] was “without fatalities occurring” throughout.
In turn, `C=CCN(CC=C)Cc1nc(-c2ncn3c2[C@@H]2CCN2C(=O)c2c-3ccc(F)c2Cl)no1` [E, (S)-1-(5-diallylaminomethyl-1,2,4-oxadiazol-3-yl)-8-chloro-7-fluoro-12,12a-dihydro-9H,11H-azeto[2,1-c]imidazo[1,5-a][1,4]benzodiazepin-9-one] showed an IC50 in data set [1] of 10 nM. In addition, the ED50 in data set [2] (setting [5]) stood at 0.2 mg/kg; in data set [2] (setting [6]), 0.3 mg/kg; in data set [2] (setting [7]), 0.3 mg/kg; in data set [2] (setting [8]), 0.4 mg/kg; in data set [2] (setting [9]), 0.8 mg/kg; in data set [2] (setting [10]), 3.9 mg/kg. For the same molecule, the ED50 is not below 10 mg/kg in data set [2] (setting [11]) and more than 10 mg/kg in data set [2] (setting [12]). Further, the fatalities entry in data set [3] and in data set [4] was “without fatalities occurring” throughout.
Molecule `CCCN(CCC)Cc1nc(-c2ncn3c2[C@@H]2CCN2C(=O)c2sccc2-3)no1` [B, (S)-1-(5-dipropylaminomethyl-1,2,4-oxadiazol-3-yl)-11,11a-dihydro-8H,10H-azeto[1,2-a]imidazo[5,1-c]thieno[3,2-e][1,4]diazepin-8-one] came in with an IC50 in data set [1] of 4.3 nM. Moreover, the ED50 in data set [2] (setting [5]) is 0.1 mg/kg; in data set [2] (setting [6]), 0.1 mg/kg; in data set [2] (setting [7]) it was 0.2 mg/kg; in data set [2] (setting [8]), 0.4 mg/kg; in data set [2] (setting [9]) it was 0.7 mg/kg; in data set [2] (setting [10]) it was 3.5 mg/kg. Also, the ED50 in data set [2] (setting [11]) and in data set [2] (setting [12]) was more than 10 mg/kg each time. The fatalities entry in data set [3] and in data set [4] was “without fatalities occurring” in each case.
As to `CCCN(CCC)Cc1nc(-c2ncn3c2CN(C)C(=O)c2ccccc2-3)no1` [F, 3-(5-dipropylaminomethyl-1,2,4-oxadiazol-3-yl)-5-methyl-5,6-dihydro-4H-imidazo[1,5-a][1,4]benzodiazepin-6-one], in data set [1], the IC50 stood at 6.9 nM. Further, the ED50 in data set [2] (setting [5]) is 0.2 mg/kg; in data set [2] (setting [6]), 0.4 mg/kg; in data set [2] (setting [7]) it was 0.5 mg/kg; in data set [2] (setting [8]) it was 0.9 mg/kg; in data set [2] (setting [9]), not below 10 mg/kg; in data set [2] (setting [10]), more than 10 mg/kg. Moreover, the ED50 in data set [2] (setting [11]) and in data set [2] (setting [12]) was more than 10 mg/kg each time.
`CCN(CC)Cc1nc(-c2ncn3c2CN(C)C(=O)c2cc(F)ccc2-3)no1` [H, 3-(5-diethylaminomethyl-1,2,4-oxadiazol-3-yl)-8-fluoro-5-methyl-5,6-dihydro-4H-imidazo[1,5-a][1,4]benzodiazepin-6-one] gave an IC50 in data set [1] of 25 nM. Moreover, the ED50 amounted to 0.1 mg/kg in data set [2] (setting [5]); 0.2 mg/kg in data set [2] (setting [6]); 0.4 mg/kg in data set [2] (setting [7]); 0.7 mg/kg in data set [2] (setting [8]); 1.2 mg/kg in data set [2] (setting [9]); 4.3 mg/kg in data set [2] (setting [10]). Also, the values for the ED50 in data set [2] (setting [11]) and in data set [2] (setting [12]) were 5.1 mg/kg and more than 10 mg/kg, respectively.
For the molecule `CCCCN(CCCC)Cc1nnc(-c2ncn3c2[C@@H]2CCN2C(=O)c2sccc2-3)o1` [N, (S)-1-(5-dibutylaminomethyl-1,3,4-oxadiazol-2-yl)-11,11a-dihydro-8H,10H-azeto[1,2-a]imidazo[5,1-c]thieno[3,2-e][1,4]diazepin-8-one], in data set [1], the IC50 worked out at 4.8 nM. Further, the ED50 in data set [2] (setting [5]) was 0.3 mg/kg; in data set [2] (setting [6]), 0.3 mg/kg; in data set [2] (setting [7]), 0.3 mg/kg; in data set [2] (setting [8]), 0.6 mg/kg; in data set [2] (setting [9]), 2.4 mg/kg; in data set [2] (setting [10]) it was more than 10 mg/kg. For the same molecule, the ED50 in data set [2] (setting [11]) and in data set [2] (setting [12]) was more than 10 mg/kg in each case.
Molecule `CCCN(CCC)Cc1nc(-c2ncn3c2[C@@H]2CCN2C(=O)c2c(Cl)cccc2-3)no1` [A, (S)-8-chloro-1-(5-dipropylaminomethyl-1,2,4-oxadiazol-3-yl)-12,12a-dihydro-9H,11H-azeto[2,1-c]imidazo[1,5-a][1,4]benzodiazepin-9-one] showed an IC50 in data set [1] of 13 nM. In addition, the ED50 in data set [2] (setting [5]) amounted to 0.3 mg/kg; in data set [2] (setting [6]) it was 0.3 mg/kg; in data set [2] (setting [7]) it was 0.7 mg/kg; in data set [2] (setting [8]), 0.8 mg/kg; in data set [2] (setting [9]), 1.4 mg/kg; in data set [2] (setting [10]), 2.1 mg/kg. For the same molecule, the ED50 in data set [2] (setting [11]) is 7.3 mg/kg; in data set [2] (setting [12]), more than 10 mg/kg. The fatalities result in data set [3] and in data set [4] was “without fatalities occurring” each time.
`CCN(CC)Cc1nc(-c2ncn3c2CN(C)C(=O)c2c(Cl)cccc2-3)no1` [K, 7-chloro-3-(5-diethylaminomethyl-1,2,4-oxadiazol-3-yl)-5-methyl-5,6-dihydro-4H-imidazo[1,5-a][1,4]benzodiazepin-6-one]: in data set [1], the IC50 was determined as 1.4 nM. Besides, the ED50 in data set [2] (setting [5]) was 0.1 mg/kg; in data set [2] (setting [6]), 0.3 mg/kg; in data set [2] (setting [7]) it was 0.3 mg/kg; in data set [2] (setting [8]), 0.6 mg/kg; in data set [2] (setting [9]) it was 2 mg/kg; in data set [2] (setting [10]), not below 10 mg/kg. The ED50 in data set [2] (setting [11]) and in data set [2] (setting [12]) was not below 10 mg/kg each time.
In data set [1], `CCN(CC)Cc1nc(-c2ncn3c2[C@@H]2CCN2C(=O)c2sccc2-3)no1` [M, (S)-1-(5-diethylaminomethyl-1,2,4-oxadiazol-3-yl)-11,11a-dihydro-8H,10H-azeto[1,2-a]imidazo[5,1-c]thieno[3,2-e][1,4]diazepin-8-one] showed an IC50 of 6.5 nM. In addition, the ED50 in data set [2] (setting [5]) was 0.2 mg/kg; in data set [2] (setting [6]), 0.3 mg/kg; in data set [2] (setting [7]), 0.3 mg/kg; in data set [2] (setting [8]), 1.1 mg/kg; in data set [2] (setting [9]), 2.1 mg/kg; in data set [2] (setting [10]) it was more than 10 mg/kg. Moreover, the ED50 in data set [2] (setting [11]) and in data set [2] (setting [12]) was more than 10 mg/kg throughout.
For `O=C1c2c(Cl)cccc2-n2cnc(-c3noc(CN4CCCCC4)n3)c2[C@@H]2CCN12` [I, (S)-8-chloro-1-[5-(piperidin-1-yl)methyl-1,2,4-oxadiazol-3-yl]-12,12a-dihydro-9H,11H-azeto[2,1-c]imidazo[1,5-a][1,4]benzodiazepin-9-one], the IC50 in data set [1] was 4.4 nM. Besides, the ED50 came out at 0.1 mg/kg in data set [2] (setting [5]); 0.7 mg/kg in data set [2] (setting [6]); 0.7 mg/kg in data set [2] (setting [7]); 1 mg/kg in data set [2] (setting [8]); 1.1 mg/kg in data set [2] (setting [9]); 3.1 mg/kg in data set [2] (setting [10]). The ED50 in data set [2] (setting [11]) is not below 10 mg/kg; in data set [2] (setting [12]), more than 10 mg/kg.
